Data taken from article PMC12503906, “Novel Pyrazolo [1,5‐a]−1,3,5‐Triazine Derivatives as CDK7 Inhibitors: Synthesis and Biological Insights in Pancreatic Ductal Adenocarcinoma Models” (Chemmedchem, 2025).

Experiments:
Assay type in all cases: cell-based
PATU‐T = assay: Annexin V apoptosis assay, PATU‐T; details: 1 × IC50
Protocol: In order to investigate the apoptotic properties of the compounds 1b and 1g, the Annexin V apoptosis assay was performed. Annexins are calcium‐dependent phospholipid binding proteins, which are able to bind to phosphatidylserine (PS). The externalization of PS residues on the outer membrane of apoptotic cells can be detected by Annexin V.
For this assay, cells were seeded in a 96‐well plate at a concentration of 13.5 × 10^3 and 4.5 × 10^3 /well respectively for the 24 and 72 h experiments. The next day cells were treated with compounds 1b and 1g at 1 × IC50 and 4 × IC50 concentrations. The apoptosis assay was performed 24 and 72 h post‐treatment following the BD Pharmingen FITC Annexin V Apoptosis Detection Kit I (BD Biosciences, 556,547). The supernatant was aspirated, and cells were washed with phosphate‐buffered saline (PBS). Cells were consequently treated with binding buffer BBA + Annexin V (1:100) and were incubated in the dark at RT for 10 min. The supernatant was removed, and the cells were washed with BBA (1:10). Cells were then incubated with BBA + PI (1:100) and were immediately read with the spectrophotometer at ex. 485/ em. 535. Two different programs were used to read the Annexin V and the PI absorbance. Lastly, 100 µL of PBS were added to each well before being fixed with TCA. This was followed by the SRB assay to standardize fluorescence data according to cell count. Data were exported into GraphPad Prism 10 for statistical analysis.

PDAC3 = assay: Wound healing assay, PDAC3; details: PDAC3, up to 24 h
Protocol: The wound healing assay was used to test the migratory ability of the selected cells post‐treatment. Cells (5 × 10^4 /well) were seeded on 96‐well. After 24 h, cells reached the optimal 100% confluency, and an artificial wound was created with a 96‐well Pintool Scratcher. The cells were immediately washed with complete medium, in order to remove cell debris after the scratch, and images of the wells were captured at time 0 h, right before the addition of the treatment. Each drug (1b and 1g) was previously diluted in the respective medium at two different concentrations: 1 × IC50 and 4 × IC50 (according to the cell specific IC50 value) and were then added to the cells. Images were then taken at timepoints 4, 8, 20, and 24 h using the Leica microscope with a JAI TMC‐137 camera to assess wound closure. The images were analyzed using the Universal Grab 6.3 software (DCILabs), and the obtained data were used to determine the percentage of migration of the cells, using the following formula. (2) % Migration=Mean width of the wound atT=0−Mean width of the wound atT=X/Mean width of the wound atT=0×100

Bax/Bcl‐2 = Bax/Bcl‐2 ratio by RT‐PCR, PATU‐T cells
Protocol: In order to understand modulation of downstream genes of CDK7, gene expression analysis by qPCR was performed in all cell lines. Cells (5 × 10^5/well) were seeded in 6‐well plates and treated with the compounds 1b and 1g at 1× and 4 × IC50 concentrations. Cell lysates were collected 24 h post‐treatment using 300 µL of TRIzol Reagent (Ambion, 15,596,018) per well. Total RNA was extracted by mixing 60 µL of chloroform to the samples, incubating for 3 min and centrifuging at 12,000 rcf for 15 min at 4 °C. The upper aqueous phase containing RNA was transferred to a new Eppendorf and mixed with 120 µL of cold isopropanol in order to allow the RNA to precipitate. Samples were incubated at RT for 10 min and were then centrifuged at 12,000 rcf for 10 min at 4 °C. The isopropanol was carefully removed, and the pellet was washed twice with 70% ETOH. Pellets were left to air dry and consequently resuspended in RNAse‐free water. Samples were left agitation on a thermomixer at 55 °C for 10 min at 600 rpm and were then quantified through NanoDrop technology (Thermo Scientific, NanoDrop One/One^c). RNA samples were stored at −80 °C.
In order to perform cDNA synthesis, the First Strand cDNA synthesis kit (Thermo Scientific, K1612) was used. The previously isolated RNA was mixed with 1 µL of oligo dT18 primer into a pcr tube. Nuclease free water was added to reach a final volume of 11 µL. Samples were centrifuged at 1200 rcf for 5 min and were then placed on a thermomixer at 65 °C for a few minutes. A master mix was prepared, including 4 µL of 5× reaction buffer, 1 µL of ribolock RNAse inhibitor, 2 µL of dntp mix (10 mM), and 2 µL of M‐mulv reverse transcriptase for each sample. In total 9 µL of master mix were added to each vial. Samples were centrifuged again and were finally synthesized, following a cycle of 60 min at 37 °C and 5 min at 70 °C. cDNA was now finally synthesized and could be stored at −20 °C. RT‐PCRs reactions were performed using SYBR Green (Bio‐Rad, 1,725,271) (5 µL per sample), primer mix (0.3 µM) (2 µL per sample), and cDNA (10 ng µL^− ^1) (3 µL per sample). […] RT‐PCR assays were carried out in a GeneAmp 5700 Sequence Detection System programmed to hold at 50 °C for 30 min, to hold at 95 °C for 10 min, and to complete 45 cycles of 95 °C for […] and 50 °C for 1 min. The genes that were investigated are shown in Table 5 , with their respective forward and reverse primer sequences.

Structure (SMILES) | apoptotic index (PATU‐T; 24 h) | apoptotic index (PATU‐T; 72 h) | inhibition of cell migration (PDAC3) | Bax/Bcl‐2 ratio PATU‐T (Bax/Bcl‐2; 1 × IC50, 24 h after treatment) | Bax/Bcl‐2 ratio PATU‐T (Bax/Bcl‐2; 4 × IC50, 24 h after treatment)
Nc1ncnc2cc(-c3c[nH]c4ccc(Br)cc34)nn12 [Compound 1b, 7‐(5‐Bromo‐1H‐indol‐3‐yl)pyrazolo[1,5‐a][1,3,5]triazin‐4‐amine] | did not show a significant apoptotic index | significant increase in apoptotic index | significant migration inhibition only at the 24‐hour time point | 4.43 | 4.03
Cn1cc(-c2cc3ncnc(N)n3n2)c2cc(Br)ccc21 [Compound 1g, 7‐(5‐Bromo‐1‐methyl‐1H‐indol‐3‐yl)pyrazolo[1,5‐a][1,3,5]triazin‐4‐amine] | significantly increased apoptosis | not significant compared to control | significant migration inhibition only at the 24‐hour time point | 2.82 | 3.74
